Each block holds one molecule with its values, some of them ahead of it.
Legend:
Format in all cases: functional, cell-based
[1] = target: T1, Multidrug resistance-associated protein 1 (Homo sapiens, UniProt P33527); test: TP_TRANSPORTER: increase in Calcein intracellular accumulation (Calcein: 0.5 uM, RU486: 50 uM) in GLC4/Sb30 cells; settings: glc4/sb30, 50 µM
[2] = target: T1, Multidrug resistance-associated protein 1; test: TP_TRANSPORTER: increase in Calcein intracellular accumulation (Calcein: 0.5 uM, Probenecid: 2000 uM) in GLC4/Sb30 cells; settings: glc4/sb30, 2000 µM
[3] = target: T1, Multidrug resistance-associated protein 1; test: TP_TRANSPORTER: increase in Calcein intracellular accumulation (Calcein: 0.5 uM, Progesterone: 50 uM) in GLC4/Sb30 cells; settings: glc4/sb30, 50 µM

T1 sequence (P33527 whole entry): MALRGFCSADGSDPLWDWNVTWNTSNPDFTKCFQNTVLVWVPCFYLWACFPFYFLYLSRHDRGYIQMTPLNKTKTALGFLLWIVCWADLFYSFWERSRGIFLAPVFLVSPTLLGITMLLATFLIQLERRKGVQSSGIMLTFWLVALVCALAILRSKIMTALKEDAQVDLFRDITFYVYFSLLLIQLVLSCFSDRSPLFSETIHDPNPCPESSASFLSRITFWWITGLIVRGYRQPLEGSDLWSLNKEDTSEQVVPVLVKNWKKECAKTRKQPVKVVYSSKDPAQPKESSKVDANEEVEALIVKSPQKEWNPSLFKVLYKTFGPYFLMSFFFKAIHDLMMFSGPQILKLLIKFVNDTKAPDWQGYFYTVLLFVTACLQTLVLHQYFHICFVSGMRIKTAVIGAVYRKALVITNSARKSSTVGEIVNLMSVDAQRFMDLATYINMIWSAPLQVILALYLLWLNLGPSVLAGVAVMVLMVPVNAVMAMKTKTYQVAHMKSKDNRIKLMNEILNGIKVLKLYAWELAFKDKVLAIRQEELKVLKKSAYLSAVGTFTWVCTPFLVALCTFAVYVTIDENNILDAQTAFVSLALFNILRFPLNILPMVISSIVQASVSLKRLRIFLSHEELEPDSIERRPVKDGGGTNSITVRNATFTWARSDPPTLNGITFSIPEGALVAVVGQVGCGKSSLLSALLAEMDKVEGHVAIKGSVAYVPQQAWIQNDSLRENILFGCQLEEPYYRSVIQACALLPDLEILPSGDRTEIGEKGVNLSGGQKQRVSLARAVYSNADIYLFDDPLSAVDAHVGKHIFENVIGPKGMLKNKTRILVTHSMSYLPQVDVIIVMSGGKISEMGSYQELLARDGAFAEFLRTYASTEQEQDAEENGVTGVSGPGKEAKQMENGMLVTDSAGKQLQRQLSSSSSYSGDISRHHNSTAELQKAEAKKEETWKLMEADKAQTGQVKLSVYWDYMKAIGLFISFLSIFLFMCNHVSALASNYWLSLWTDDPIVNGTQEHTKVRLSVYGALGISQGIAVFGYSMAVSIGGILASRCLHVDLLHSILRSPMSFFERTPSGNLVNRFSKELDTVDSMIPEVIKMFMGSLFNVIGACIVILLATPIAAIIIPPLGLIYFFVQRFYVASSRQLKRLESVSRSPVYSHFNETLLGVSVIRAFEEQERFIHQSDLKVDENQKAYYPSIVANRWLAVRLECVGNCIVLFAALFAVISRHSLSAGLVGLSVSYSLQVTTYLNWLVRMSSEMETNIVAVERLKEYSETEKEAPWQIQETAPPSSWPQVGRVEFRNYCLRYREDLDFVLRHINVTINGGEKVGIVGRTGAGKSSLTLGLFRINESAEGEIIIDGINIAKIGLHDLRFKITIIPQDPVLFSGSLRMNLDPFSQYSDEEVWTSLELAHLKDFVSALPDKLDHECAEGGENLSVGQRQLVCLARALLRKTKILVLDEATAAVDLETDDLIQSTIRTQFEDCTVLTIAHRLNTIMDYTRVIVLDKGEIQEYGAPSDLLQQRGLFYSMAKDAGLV

Activity [1]: inhibitor [+]
Structure (SMILES): CC#C[C@]1(O)CC[C@H]2[C@@H]3CCC4=CC(=O)CCC4=C3[C@@H](c3ccc(N(C)C)cc3)C[C@@]21C [MIFEPRISTONE]

Activity [2]: inhibitor [+]
Structure (SMILES): CCCN(CCC)S(=O)(=O)c1ccc(C(=O)O)cc1 [PROBENECID]

Structure (SMILES): CC(=O)[C@H]1CC[C@H]2[C@@H]3CCC4=CC(=O)CC[C@]4(C)[C@H]3CC[C@]12C [PROGESTERONE]
Activity [3]: inhibitor [+]
